Data set [1] is described as follows: Acid dissociation constant pKa of the aromatic compound used as precursor material.

For `O=C(O)c1ccccc1C(=O)O` [benzene-1,2-dicarboxylic acid], the pKa in “physchem” was 3.5 to 4.5.

`O=C(O)c1ccc(C(=O)O)cc1` [benzene-1,4-dicarboxylic acid]: in “physchem”, the pKa is 3.5 to 4.5.

Regarding `O=C(O)c1cccc2cccc(C(=O)O)c12` [naphthalene-1,8-dicarboxylic acid], the pKa in data set [1] fell in the range of 3.5 to 4.5.

In data set [1], `O=C(O)c1ccc2c3ccc(C(=O)O)c4c(C(=O)O)ccc(c5ccc(C(=O)O)c1c25)c43` [perylene-3,4,9,10-tetracarboxylic acid] showed a pKa of 3.5 to 4.5. The same measure, in the same setting: with `O=C(O)c1ccc(C(=O)O)c2ccccc12` [naphthalene-1,4-dicarboxylic acid] the figure was 3.5 to 4.5. In data set [1], `O=C(O)c1cccc(C(=O)O)c1` [benzene-1,3-dicarboxylic acid] registered a pKa of 3.5 to 4.5. The same measure, in the same setting: with `O=C(O)c1cc(C(=O)O)c(C(=O)O)cc1C(=O)O` [benzene-1,2,4,5-tetracarboxylic acid] the figure was 3.5 to 4.5; with `O=C(O)c1ccc(C(=O)O)c(C(=O)O)c1` [benzene-1,2,4-tricarboxylic acid], 3.5 to 4.5; with `O=C(O)c1cccc2ccccc12` [naphthalene-1-carboxylic acid], 4.2. On the same count and under the same terms, with `O=C(O)c1ccc(C(=O)O)c2c(C(=O)O)ccc(C(=O)O)c12` [naphthalene-1,4,5,8-tetracarboxylic acid] the figure was 3.5 to 4.5.

(Values after US6342319B1, “Nonaqueous electrolyte secondary battery and method of manufacturing negative electrode” (Kabushiki Kaisha Toshiba, priority 1997, dated 2002).)
